Calls of active or inactive are those of the source. No cut-off for these calls is given here.

Chain of Voltage-gated inwardly rectifying potassium channel KCNH2 (Q12809 whole entry): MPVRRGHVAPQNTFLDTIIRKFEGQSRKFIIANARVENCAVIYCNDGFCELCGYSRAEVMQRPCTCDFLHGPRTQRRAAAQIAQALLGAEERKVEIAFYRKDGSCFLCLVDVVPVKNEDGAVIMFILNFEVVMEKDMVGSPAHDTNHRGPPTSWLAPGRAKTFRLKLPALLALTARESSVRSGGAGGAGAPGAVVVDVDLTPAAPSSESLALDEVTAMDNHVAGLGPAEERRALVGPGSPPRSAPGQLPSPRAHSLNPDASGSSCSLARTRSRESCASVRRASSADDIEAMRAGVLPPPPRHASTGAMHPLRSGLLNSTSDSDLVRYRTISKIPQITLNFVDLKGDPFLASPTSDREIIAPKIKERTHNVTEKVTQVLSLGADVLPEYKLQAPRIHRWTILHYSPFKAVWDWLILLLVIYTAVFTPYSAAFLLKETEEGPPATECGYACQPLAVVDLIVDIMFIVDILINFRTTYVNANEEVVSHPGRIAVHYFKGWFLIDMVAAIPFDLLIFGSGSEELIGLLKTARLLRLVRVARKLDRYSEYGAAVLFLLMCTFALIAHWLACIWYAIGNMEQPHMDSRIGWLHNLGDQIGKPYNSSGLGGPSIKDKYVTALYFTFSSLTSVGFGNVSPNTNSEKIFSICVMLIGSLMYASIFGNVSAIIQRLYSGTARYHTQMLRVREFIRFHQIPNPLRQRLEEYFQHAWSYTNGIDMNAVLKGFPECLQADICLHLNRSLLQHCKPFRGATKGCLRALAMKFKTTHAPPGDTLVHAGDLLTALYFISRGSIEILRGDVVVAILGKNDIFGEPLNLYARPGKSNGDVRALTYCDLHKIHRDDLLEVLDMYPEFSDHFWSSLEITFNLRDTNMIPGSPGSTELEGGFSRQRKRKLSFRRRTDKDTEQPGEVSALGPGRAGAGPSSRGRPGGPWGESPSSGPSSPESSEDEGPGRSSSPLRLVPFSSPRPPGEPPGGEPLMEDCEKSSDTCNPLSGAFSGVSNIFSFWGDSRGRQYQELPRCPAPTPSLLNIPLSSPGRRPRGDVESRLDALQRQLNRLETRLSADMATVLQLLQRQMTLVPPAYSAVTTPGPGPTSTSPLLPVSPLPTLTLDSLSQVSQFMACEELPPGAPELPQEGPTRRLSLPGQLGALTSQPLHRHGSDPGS

The test system of one data set is SARS-CoV-2. In words: Antiviral activity against SARS CoV-2 Wuhan infected in African green monkey Vero E6 cells assessed as virus inactivation at 10 uM pretreated for 15 mins followed by compound removal and induction of viral infection for 1 hr and subsequent removal of inoculum and further addition of media containing compound measured after 48 hrs by RT-qPCR analysis relative to control. It counts as functional. Particulars: Severe acute respiratory syndrome coronavirus 2, time 48.25 hrs.
Regarding `CCOC(=O)c1c(CSc2ccc(F)cc2C)n(Cc2cccc3ccccc23)c2cc(Br)c(O)cc12`, the Activity entry is “Not active; No Significant Effect Observed”.
The same measure, in the same setting: the same measure for `CCOC(=O)c1c(CSc2ccc(C)cc2C)n(Cc2ccc(C#N)cc2)c2cc(Br)c(O)cc12`: “Not active; No Significant Effect Observed”; for `CCOC(=O)c1c(CSc2ccccc2)n(Cc2cccc3ccccc23)c2cc(Br)c(O)cc12`: “Not active; No Significant Effect Observed”; for `CCOC(=O)c1c(CSc2ccccc2OC(F)(F)F)n(C)c2cc(Br)c(O)cc12`: “Not active; No Significant Effect Observed”.
The same measure, in the same setting: the same measure for `CCOC(=O)c1c(CSc2c(C)cc(C)cc2C)n(C)c2cc(Br)c(O)cc12`: “Not determined; No Significant Effect Observed”; for `CCOC(=O)c1c(CSc2ccccc2OC)n(C)c2cc(Br)c(O)c(CN(C)C)c12`: “Not active; No Significant Effect Observed”.
The same measure, in the same setting: the same measure for `CCOC(=O)c1c(CSc2c(C)cc(C)cc2C)n(C)c2cc(Br)c(O)c(CN(C)C)c12`: “Not determined; No Significant Effect Observed”; for `CCOC(=O)c1c(CSc2ccc(C)cc2C)n(Cc2ccc(C(C)(C)C)cc2)c2cc(Br)c(O)cc12`: “Not active; No Significant Effect Observed”; for `CCOC(=O)c1c(CSc2c(C)cc(C)cc2C)n(Cc2ccc(C)cc2)c2cc(Br)c(O)c(CN(C)C)c12`: “Not determined; No Significant Effect Observed”.
Consider `CCOC(=O)c1c(CSc2c(C)cc(C)cc2C)n(Cc2cccc3ccccc23)c2cc(Br)c(O)cc12`, for which the Activity entry was “Not active; No Significant Effect Observed”.
On the same count and under the same terms, the same measure for `CCOC(=O)c1c(CSc2ccccc2C(F)(F)F)n(C)c2cc(Br)c(O)c(CN(C)C)c12`: “Not active; No Significant Effect Observed”.
Regarding `CCOC(=O)c1c(CSc2ccc(C)cc2C)n(Cc2ccc(Cl)cc2)c2cc(Br)c(O)cc12`, the Activity result is “Not active; No Significant Effect Observed”.
Consider `CCOC(=O)c1c(CSc2ccc(C)cc2C)n(Cc2ccc(F)cc2)c2cc(Br)c(O)cc12`, for which the Activity entry is “Not active; No Significant Effect Observed”.
As for `CCOC(=O)c1c(CSc2ccc(F)cc2)n(Cc2ccc(C)cc2)c2cc(Br)c(O)cc12`, the Activity entry was “Not active; No Significant Effect Observed”.
On the same count and under the same terms, the same measure for `CCOC(=O)c1c(CSc2ccccc2OC(F)(F)F)n(C)c2cc(Br)c(O)c(CN(C)C)c12`: “Not active; No Significant Effect Observed”.
The same measure, in the same setting: the same measure for `CCOC(=O)c1c(CSc2ccccc2C(F)(F)F)n(C)c2cc(Br)c(O)cc12`: “Not active; No Significant Effect Observed”; for `CCOC(=O)c1c(CSc2ccc(C)cc2C)n(Cc2ccc(-c3ccccc3)cc2)c2cc(Br)c(O)cc12`: “Not active; No Significant Effect Observed”.
Still for that read-out and setting: the same measure for `CCOC(=O)c1c(CSc2ccc(F)cc2F)n(C)c2cc(Br)c(O)cc12`: “Not active; No Significant Effect Observed”.
Consider `CCOC(=O)c1c(CSc2ccccc2)[nH]c2cc(Br)c(O)cc12`, for which the Activity entry was “Not active; No Significant Effect Observed”.
Same read-out and setting: the same measure for `CCOC(=O)c1c(CSc2ccccc2OC)n(C)c2cc(Br)c(O)cc12`: “Not active; No Significant Effect Observed”.

The next data set deals with Vero C1008. In words: Cytotoxicity against African green monkey Vero E6 cells assessed as cell viability at 5 uM incubated for 48 hrs by MTT assay. Format: toxicity, cell-based. Particulars: chlorocebus sabaeus, vero c1008, 48 h, 5 µM.
Regarding `CCOC(=O)c1c(CSc2ccc(F)cc2C)n(Cc2cccc3ccccc23)c2cc(Br)c(O)cc12`, the Activity result is recorded as “Non-toxic”.
Still for that read-out and setting: the same measure for `CCOC(=O)c1c(CSc2ccc(C)cc2C)n(Cc2ccc(C#N)cc2)c2cc(Br)c(O)cc12`: “Non-toxic”; for `CCOC(=O)c1c(CSc2c(C)cc(C)cc2C)n(C)c2cc(Br)c(O)cc12`: “Non-toxic”; for `CCOC(=O)c1c(CSc2c(C)cc(C)cc2C)n(C)c2cc(Br)c(O)c(CN(C)C)c12`: “Non-toxic”.
On the same count and under the same terms, the same measure for `CCOC(=O)c1c(CSc2ccc(C)cc2C)n(Cc2ccc(C(C)(C)C)cc2)c2cc(Br)c(O)cc12`: “Non-toxic”; for `CCOC(=O)c1c(CSc2c(C)cc(C)cc2C)n(Cc2ccc(C)cc2)c2cc(Br)c(O)c(CN(C)C)c12`: “Non-toxic”; for `CCOC(=O)c1c(CSc2c(C)cc(C)cc2C)n(Cc2cccc3ccccc23)c2cc(Br)c(O)cc12`: “Non-toxic”.
Same read-out and setting: the same measure for `CCOC(=O)c1c(CSc2ccc(C)cc2C)n(Cc2ccc(F)cc2)c2cc(Br)c(O)cc12`: “Non-toxic”; for `CCOC(=O)c1c(CSc2ccc(F)cc2)n(Cc2ccc(C)cc2)c2cc(Br)c(O)cc12`: “Non-toxic”; for `CCOC(=O)c1c(CSc2ccc(C)cc2C)n(Cc2ccc(-c3ccccc3)cc2)c2cc(Br)c(O)cc12`: “Non-toxic”.
As to `CCOC(=O)c1c(CSc2ccccc2)[nH]c2cc(Br)c(O)cc12`, the Activity entry is “Non-toxic”.

A further data set has as its system SARS-CoV-2. Put plainly: Antiviral activity against SARS CoV-2 Wuhan infected in African green monkey Vero E6 cells assessed as inhibition of viral replication pretreated for 15 mins followed by compound removal and induction of viral infection for 1 hr and subsequent removal of inoculum and further addition of media containing compound measured after 48 hrs by RT-qPCR analysis. Format: functional, organism-based. The following applies: Severe acute respiratory syndrome coronavirus 2, time 48.25 hrs.
With `CCOC(=O)c1c(CSc2ccc(C)cc2C)n(Cc2ccc(C#N)cc2)c2cc(Br)c(O)cc12`, the inhibition entry is “Not active; No Significant Effect”.
The same measure, in the same setting: then `CCOC(=O)c1c(CSc2ccccc2OC(F)(F)F)n(C)c2cc(Br)c(O)cc12`, with “Not active; No Significant Effect”.
For the compound `CCOC(=O)c1c(CSc2ccccc2OC)n(C)c2cc(Br)c(O)c(CN(C)C)c12`, the inhibition entry was “Not active; No Significant Effect”.
Still for that read-out and setting: the same measure for `CCOC(=O)c1c(CSc2c(C)cc(C)cc2C)n(C)c2cc(Br)c(O)c(CN(C)C)c12`: “Not active; No Significant Effect”; for `CCOC(=O)c1c(CSc2ccc(C)cc2C)n(Cc2ccc(C(C)(C)C)cc2)c2cc(Br)c(O)cc12`: “Not active; No Significant Effect”; for `CCOC(=O)c1c(CSc2ccccc2C(F)(F)F)n(C)c2cc(Br)c(O)c(CN(C)C)c12`: “Not active; No Significant Effect”.
The same measure, in the same setting: then `CCOC(=O)c1c(CSc2ccc(C)cc2C)n(Cc2ccc(Cl)cc2)c2cc(Br)c(O)cc12`, with “Not active; No Significant Effect”; and `CCOC(=O)c1c(CSc2ccc(C)cc2C)n(Cc2ccc(F)cc2)c2cc(Br)c(O)cc12`, with “Not active; No Significant Effect”; and `CCOC(=O)c1c(CSc2ccc(F)cc2)n(Cc2ccc(C)cc2)c2cc(Br)c(O)cc12`, with “Not active; No Significant Effect”.
The same measure, in the same setting: the same measure for `CCOC(=O)c1c(CSc2ccccc2OC(F)(F)F)n(C)c2cc(Br)c(O)c(CN(C)C)c12`: “Not active; No Significant Effect”.
In the case of `CCOC(=O)c1c(CSc2ccccc2C(F)(F)F)n(C)c2cc(Br)c(O)cc12`, the inhibition entry is “Not active; No Significant Effect”.
The same measure, in the same setting: the same measure for `CCOC(=O)c1c(CSc2ccc(C)cc2C)n(Cc2ccc(-c3ccccc3)cc2)c2cc(Br)c(O)cc12`: “Not active; No Significant Effect”; for `CCOC(=O)c1c(CSc2ccc(F)cc2F)n(C)c2cc(Br)c(O)cc12`: “inactive”.
On the same count and under the same terms, then `CCOC(=O)c1c(CSc2ccccc2)[nH]c2cc(Br)c(O)cc12`, with “Not active; No Significant Effect”; and `CCOC(=O)c1c(CSc2ccccc2OC)n(C)c2cc(Br)c(O)cc12`, with “Not active; No Significant Effect”.

A further data set concerns the target Voltage-gated inwardly rectifying potassium channel KCNH2 (Homo sapiens, UniProt Q12809). In words: Inhibition of hERG extracted from membrane (unknown origin) incubated for 4 hrs by fluorescence polarization assay. It counts as toxicity, cell membranes.
Conditions: not given
The compound `CCOC(=O)c1c(CSc2c(C)cc(C)cc2C)n(Cc2ccc(C)cc2)c2cc(Br)c(O)c(CN(C)C)c12` came in with an IC50 of 3.85 µM.

The test system of another data set is SARS-CoV-2. Put plainly: Antiviral activity against SARS CoV-2 Wuhan infected in African green monkey Vero E6 cells assessed as inhibition of viral replication pretreated for 15 mins followed by compound removal and induction of viral infection for 1 hr and subsequent removal of inoculum and further addition of media containing compound measured after 24 hrs by cell-based ELISA. Format: functional, organism-based. Particulars: Severe acute respiratory syndrome coronavirus 2, Wuhan, Vero C1008.
Consider `CCOC(=O)c1c(CSc2c(C)cc(C)cc2C)n(C)c2cc(Br)c(O)cc12`, for which the 50% inhibitory concentration (IC50) was 8.75 µM.
`CCOC(=O)c1c(CSc2c(C)cc(C)cc2C)n(Cc2ccc(C)cc2)c2cc(Br)c(O)c(CN(C)C)c12`: the IC50 turned out to be 10 µM.

Still in this data set, the particulars now being: Severe acute respiratory syndrome coronavirus 2, time 24.25 hrs.
Turning to `CCOC(=O)c1c(CSc2ccc(F)cc2C)n(Cc2cccc3ccccc23)c2cc(Br)c(O)cc12`, the inhibition entry is “inactive”.
Still for that read-out and setting: the same measure for `CCOC(=O)c1c(CSc2ccccc2)n(Cc2cccc3ccccc23)c2cc(Br)c(O)cc12`: “inactive”.
Turning to `CCOC(=O)c1c(CSc2c(C)cc(C)cc2C)n(Cc2cccc3ccccc23)c2cc(Br)c(O)cc12`, the inhibition entry is “inactive”.
The same measure, in the same setting: then `CCOC(=O)c1c(CSc2ccc(F)cc2F)n(C)c2cc(Br)c(O)cc12`, with “inactive”.

Values taken from ChEMBL document CHEMBL6134895, “Strategic Design and Optimization of Umifenovir Analogues: Balancing Antiviral Efficacy and hERG Toxicity against SARS-CoV-2” (J Med Chem, 2025).
